This note sets out measurements from patent US10143686B2, “Oxidosqualene cyclase as a protein target for anticancer therapeutics” (The Curators of the University of Missouri, priority 2010, dated 2018).

Counter-ions that a name gives are not always drawn. Like-named read-outs stand apart in the source and are kept apart here.

The subject of data set [1] is Capan-1 pancreatic cancer cells. The data set is described as follows: SRB cell viability assay, Capan-1. It is filed as cell-based. The settings on record: Homo sapiens, Capan-1, Pancreas. The procedure: (§1) The effect of OSC inhibition was evaluated in additional cancer cell lines as well. Cancer cell lines may be purchased from ATCC (Manassas, Va.). The SRB assay has been employed for determination of the inhibitory effects of RO 48-8071 on growth of different cancer cells. Cells were seeded into 96-well plates and incubated overnight at 37° C. with 5% CO2. The culture medium was removed after 24 hours, and cells were washed with DMEM/F12 medium and then treated with various concentrations of RO 48-8071 in 5% FBS culture medium for 24 and 48 hours. Surviving or adherent cells were fixed in situ by withdrawing the growth medium, adding 100 μl PBS and 100 μl 50% trichloroacetic acid and then incubating at 4° C. for one hour. Cells were washed with ice-cold water, dried at room temperature (RT), and then stained with 50 μl 4% SRB for eight minutes at RT. Unbound dye was removed by washing with cold 1% acetic acid for five times, and plates were dried at RT. Bound stain was solubilized with 150 μl 10 mM Tris buffer and absorbance of samples was read at 520 nm with a SpecTRA MAX 190 microplate reader (Molecular Devices, Sunnyvale, Calif.). Six wells were used for each concentration, and each experiment was performed two to three times.
Effect of RO 48-8071 on pancreatic cancer cell line Capan-1 viability. […] The culture mediums employed 20% FBS IMDM for culture and 10% FBS IMDM for treatment.

Data set [2] deals with SK-OV-3 ovarian cancer cells. The data set can be described thus: SRB cell viability assay, SK-OV-3. It is filed as cell-based. The conditions noted are these: Homo sapiens, SK-OV-3, Ovary. The method, then: as §1
Effect of RO 48-8071 on ovarian cancer cell line SK-OV-3 viability. […]

For data set [3], the system named is BxPC-3 pancreatic cancer cells. The data set can be described thus: SRB cell viability assay, BxPC-3. The conditions noted are these: Homo sapiens, BxPC-3, Pancreas. It is filed as cell-based. The procedure:
as §1
Effect of RO 48-8071 on pancreatic cancer cell line BxPC-3 viability. […]

The subject of data set [4] is BT-474 human breast cancer xenograft. The data set can be described thus: BT-474 breast tumor xenograft in nude mice. The method, then: Female athymic nu/nu nude mice, 5 to 6 weeks-old (18-22 g) were purchased from Harland Sprague-Dawley, Inc. Nude mice were inoculated with 17-β-Estradiol pellets (1.7 mg/pellet, 60 days release) 48 hours before inoculating tumor cells. BT-474 human breast cancer cells, 5×10^6 in 0.15 ml solution mixed with matrigel and DMEM/F12 medium (4/1, v/v) were injected into each flank of mouse subcutaneously and both flanks of each mouse were injected. When tumor volume reached around 100 mm3, animal were randomly assigned to three groups and the treatment started with RO 48-8071 (5 mg/kg/day or 10 mg/kg/day) via tail-vein injection for five days, followed by same treatment every other day for five additional times as shown in the FIG. 13A. Animals in control group received the vehicle alone under identical conditions. Tumor volumes were measured by a digital caliper and calculated using the formula (L×W×H)×0.5236.
Animal weight was monitored throughout the experiment.

In data set [5] the test system is LNCaP prostate cancer cells. The data set is described as follows: SRB cell viability assay, LNCaP. It is filed as cell-based. The conditions noted are these: Homo sapiens. The procedure: as §1
Effect of RO 48-8071 prostate cancer cell line LNCaP viability. […] The culture mediums employed 20% FBS RPMI-1640 for culture and 10% FBS RPMI-1640 for treatment.

In data set [6] the test system is PC-3 human prostate cancer xenograft. The data set is described as follows: PC-3 prostate tumor xenograft in nude mice. The method, then: Male athymic nu/nu nude mice, 6 weeks-old (21-25 g) were purchased from Harlan Laboratories, Inc. Human prostate cancer PC-3 cells, […] in 0.15 ml solution mixed with matrigel and DMEM/F12 medium (1/1, v/v) were injected into each flank of mouse subcutaneously, and both flanks of each mouse were injected. When tumor volume reached around 100 mm3, animals were randomly assigned to three groups and the treatment started with Ro 48-8071 (5 mg/kg/day or 20 mg/kg/day) via tail-vein injection for five days, followed by same treatment every other day for seven additional times as shown in the FIG. 14A. Animals in control group received the vehicle alone under identical conditions.

The subject of data set [7] is NCI-H23 lung cancer cells. The data set is described as follows: SRB cell viability assay, NCI-H23. It is filed as cell-based. The settings on record: Homo sapiens. The method, then:
as §1
Effect of RO 48-8071 on lung cancer cell line H23 viability. […] The culture mediums employed 10% FBS RPMI-1640 for culture and 5% FBS RPMI-1640 for treatment.

In data set [8] the test system is DLD-1 colon cancer cells. The data set is described as follows: SRB cell viability assay, DLD-1. It is filed as cell-based. The settings on record: Homo sapiens. The procedure: as §1
Effect of RO 48-8071 on colon cancer cell line DLD-1 viability. […] The culture mediums employed 10% FBS RPMI-1640 for culture and 5% FBS RPMI-1640 for treatment.

Data set [9] concerns A549 lung cancer cells. The data set is described as follows: SRB cell viability assay, A549. It is filed as cell-based. The settings on record: Homo sapiens. The method, then:
as §1
Effect of RO 48-8071 on lung cancer cell line A549 viability. […] The culture mediums employed 10% FBS F-12K for culture and 5% FBS F-12K for treatment.

Data set [10] has as its system OV-CAR-3 ovarian cancer cells. The data set is described as follows: SRB cell viability assay, OV-CAR-3. It is filed as cell-based. The settings on record: Homo sapiens, OVCAR-3, OV-CAR-3, Ovary. The procedure: as §1
Effect of RO 48-8071 on ovarian cancer cell line OVCAR-3 viability. […]

Where [11] appears, read: 24 hours, read-out: IC50 (μM) (24 hours).
[12] abbreviates: 48 hours, read-out: IC50 (μM) (48 hours).

On to `C=CCN(C)CCCCCCOc1ccc(C(=O)c2ccc(Br)cc2)c(F)c1` [Ro 48-8071, 4′-[6-(Allylmethylamino)hexyloxy]-4-bromo-2′-fluorobenzophenone fumarate], for which the IC50 in [1] (setting [11]) worked out at 18.6 ± 1.62 µM; in data set [1] (setting [12]) it was 13.7 ± 0.168 µM; in [2] (setting [11]) it was 18.3 ± 0.639 µM; in [2] (setting [12]), 12.7 ± 0.521 µM; in data set [3] (setting [11]), 11.4 ± 0.621 µM; in data set [3] (setting [12]), 7.11 ± 0.102 µM. Also, the IC50 stood at 18.1 ± 3.22 µM in data set [5] (setting [11]); 11.8 ± 0.431 µM in [5] (setting [12]); 14.2 ± 1.28 µM in [7] (setting [11]); 10.3 ± 0.303 µM in [7] (setting [12]); 11.5 ± 0.243 µM in [8] (setting [11]); 6.92 ± 0.41 µM in data set [8] (setting [12]). Moreover, the IC50 in [9] (setting [11]) came out at 13.5 ± 0.928 µM; in [9] (setting [12]) it was 9.26 ± 0.454 µM; in [10] (setting [11]) it was 20.5 ± 0.325 µM; in [10] (setting [12]) it was 11.3 ± 0.33 µM. In addition, the “tumor volume versus control group” value was “Significant differences were observed compared with control group” in [4] (5 or 10 mg/kg/day, tail-vein injection, P<0.05 ANOVA, FIG. 13A) and “Significant differences compared with control group” in data set [6] (5 or 20 mg/kg/day, tail-vein injection, P<0.05 ANOVA, FIG. 14A). Moreover, the “toxicity at doses used for inhibiting tumor growth” value in data set [4] (BT-474 tumor-bearing nude mice) and in data set [6] (PC-3 tumor-bearing nude mice) was “non-toxic” throughout. In addition, the “animal weight, control versus treated groups” value in data set [4] (BT-474 tumor-bearing nude mice, FIG. 13B) is on record as “No significant difference”; in [6] (PC-3 tumor-bearing nude mice, FIG. 14B), “No significant difference”.
